Measured values published in ChEMBL document CHEMBL1201862, “PubChem BioAssay data set” (2004).
Active and inactive are the calls of the source.

Key:
[1] = MDA-MB-231 cell growth inhibition, dose response, cytotoxicity control for RAD54 inhibitor project, CellTiter-Glo luminescence, cherry-pick (AID 651692); type: functional, cell-based
[2] = LGR2 antagonists, dose response, cell-based, HEK293, CRE-luciferase reporter, cherry pick, set 2 (AID 743343); type: functional;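 also: transfected cells were stimulated with diluted bursicon conditioned medium after compound addition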
[3] = A549 cell cytotoxicity, dose response, cytotoxicity control, plate reader, cherry-pick, antagonist series (AID 743412); type: functional, cell-based
[4] = target: DNA repair and recombination protein RAD54-like (Homo sapiens, UniProt Q92698); experiment: inhibitors of human RAD54 branch migration, confirmation, biochemical, fluorescence, cherry-picked samples, dose series (AID 651657); type: functional
[5] = target: T1, Ubiquitin-conjugating enzyme E2 N (Homo sapiens, UniProt P61088); type: functional;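 also: Dose-response confirmation in a TR-FRET assay detecting UBC13-driven polyubiquitin chain formation, inhibition measured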
T1 sequence (P61088 whole entry): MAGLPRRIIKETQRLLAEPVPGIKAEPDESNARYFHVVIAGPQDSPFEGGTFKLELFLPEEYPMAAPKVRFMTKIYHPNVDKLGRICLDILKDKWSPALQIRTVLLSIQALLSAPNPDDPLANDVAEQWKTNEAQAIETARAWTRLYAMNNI

[6] = MC4R antagonists, dose response, counter-screen for LGR2 antagonist project, cell-based, plate reader, cherry pick (AID 743444); type: functional;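 also: transfected HEK 293 cells stimulated with alpha-MSH peptide; potency of inhibitors of the alpha-MSH evoked signal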
[7] = target: T2, DNA repair protein RAD52 homolog (Homo sapiens, UniProt P43351); type: functional, biochemical
T2 sequence (P43351 whole entry): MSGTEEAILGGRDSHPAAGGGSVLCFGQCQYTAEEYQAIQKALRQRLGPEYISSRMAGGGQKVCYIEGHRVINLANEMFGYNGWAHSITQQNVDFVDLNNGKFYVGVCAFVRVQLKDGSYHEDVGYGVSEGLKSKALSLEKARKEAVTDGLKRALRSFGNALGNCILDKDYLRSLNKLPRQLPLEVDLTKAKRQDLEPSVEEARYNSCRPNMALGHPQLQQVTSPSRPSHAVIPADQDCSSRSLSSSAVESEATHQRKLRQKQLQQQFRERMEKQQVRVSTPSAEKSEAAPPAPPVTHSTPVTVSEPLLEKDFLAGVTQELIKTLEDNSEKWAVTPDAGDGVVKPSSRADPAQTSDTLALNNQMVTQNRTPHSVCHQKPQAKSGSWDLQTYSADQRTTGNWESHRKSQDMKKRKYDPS

[8] = HepG2 cell cytotoxicity, dose response, cytotoxicity control, plate reader, cherry-pick, antagonist series (AID 743416); type: functional, cell-based
[9] = HEK293 cell cytotoxicity, dose response, cytotoxicity control, plate reader, cherry-picked samples (AID 743446); type: functional, cell-based
[10] = target: T3, High affinity choline transporter 1 (Homo sapiens, UniProt Q9GZV3); experiment: inhibitors of CHT choline uptake, dose response, cell-based, 3H-choline uptake, CHT LV-AA trafficking mutant, CRC (AID 602208); type: functional
T3 sequence (Q9GZV3 whole entry): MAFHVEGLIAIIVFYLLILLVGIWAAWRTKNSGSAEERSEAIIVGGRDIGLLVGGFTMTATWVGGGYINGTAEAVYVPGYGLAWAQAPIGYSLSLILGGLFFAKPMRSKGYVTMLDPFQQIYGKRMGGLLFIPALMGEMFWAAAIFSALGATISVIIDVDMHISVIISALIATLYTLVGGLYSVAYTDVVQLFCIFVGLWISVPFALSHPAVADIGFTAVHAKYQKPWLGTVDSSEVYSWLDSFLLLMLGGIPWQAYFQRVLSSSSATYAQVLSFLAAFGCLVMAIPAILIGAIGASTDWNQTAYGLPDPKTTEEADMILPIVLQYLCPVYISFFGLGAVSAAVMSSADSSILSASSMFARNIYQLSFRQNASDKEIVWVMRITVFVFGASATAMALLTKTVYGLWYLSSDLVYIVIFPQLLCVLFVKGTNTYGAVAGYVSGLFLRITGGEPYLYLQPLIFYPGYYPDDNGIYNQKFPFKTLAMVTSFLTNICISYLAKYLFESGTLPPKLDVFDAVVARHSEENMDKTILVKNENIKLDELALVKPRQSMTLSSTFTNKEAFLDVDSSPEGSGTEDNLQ

[11] = target: T3, High affinity choline transporter 1; experiment: CHT inhibitors, dose response, cell-based, 10-point CRC, membrane potential dye (AID 588401); type: functional;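 also: membrane potential dye fluorescence of choline-evoked depolarization via CHT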
[12] = target: T3, High affinity choline transporter 1; experiment: CHT inhibitors, dose response, cell-based, 5-point CRC, membrane potential dye (AID 504840); type: functional
[13] = target: Steroidogenic factor 1 (Homo sapiens, UniProt Q13285); experiment: Counterscreen for inverse agonists of the liver receptor homolog-1 (LRH-1; NR5A2): Luminescence-based cell-based high throughput dose response assay to identify inverse agonists of the Steroidogenic Factor 1 Nuclear Receptor (SF1; NR5A1).; type: functional
Steroidogenic factor 1, sequence (Q13285 whole entry): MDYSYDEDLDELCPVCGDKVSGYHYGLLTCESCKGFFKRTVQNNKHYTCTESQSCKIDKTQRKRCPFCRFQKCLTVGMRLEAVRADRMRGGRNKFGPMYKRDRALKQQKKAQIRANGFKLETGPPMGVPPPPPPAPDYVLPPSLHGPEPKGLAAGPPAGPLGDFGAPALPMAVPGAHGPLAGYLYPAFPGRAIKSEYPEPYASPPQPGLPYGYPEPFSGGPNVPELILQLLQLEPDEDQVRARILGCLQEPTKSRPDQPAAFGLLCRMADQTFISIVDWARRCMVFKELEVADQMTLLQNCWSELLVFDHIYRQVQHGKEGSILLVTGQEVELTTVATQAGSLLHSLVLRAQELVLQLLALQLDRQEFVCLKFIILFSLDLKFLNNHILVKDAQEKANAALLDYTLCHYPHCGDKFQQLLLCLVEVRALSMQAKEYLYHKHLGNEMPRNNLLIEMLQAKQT

[14] = StAR promoter reporter inhibition counter-screen, dose response, counter-screen for LRH-1 inverse agonist project, cell-based, luminescence, luciferase reporter (AID 651969); type: functional
[15] = target: Nuclear receptor subfamily 5 group A member 2 (Homo sapiens, UniProt O00482); type: functional, cell-based;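 also: HEK293T cells transfected with LRH-1 and a StAR promoter luciferase reporter; potency for inhibitors that lower LRH-1 driven reporter light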
Nuclear receptor subfamily 5 group A member 2, sequence (O00482 whole entry): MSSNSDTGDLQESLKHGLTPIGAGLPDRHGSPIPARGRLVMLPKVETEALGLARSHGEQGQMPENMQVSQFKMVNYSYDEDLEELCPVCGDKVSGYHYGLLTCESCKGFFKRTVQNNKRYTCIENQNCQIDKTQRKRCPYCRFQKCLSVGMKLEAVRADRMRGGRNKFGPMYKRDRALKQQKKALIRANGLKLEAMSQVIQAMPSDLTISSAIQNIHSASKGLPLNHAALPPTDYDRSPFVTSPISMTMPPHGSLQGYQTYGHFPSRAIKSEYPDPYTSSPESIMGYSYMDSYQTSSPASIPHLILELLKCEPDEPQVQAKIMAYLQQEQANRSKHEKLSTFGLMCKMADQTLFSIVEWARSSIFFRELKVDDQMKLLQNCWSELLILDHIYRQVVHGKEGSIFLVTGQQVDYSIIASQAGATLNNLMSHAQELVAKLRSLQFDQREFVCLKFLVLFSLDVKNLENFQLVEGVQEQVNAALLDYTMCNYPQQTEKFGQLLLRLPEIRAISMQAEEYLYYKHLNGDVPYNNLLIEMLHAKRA

[16] = AlphaScreen signal interference compounds, dose response, artefact control for ARNT-TACC3 interaction inhibitor project, biochemical, luminescence, cherry-pick (AID 651705); type: functional;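 also: AlphaScreen bead proximity signal that flags compounds interfering with the detection technology; potency reflects signal decrease which marks the compound as an assay artifact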
[17] = HepG2 cell cytotoxicity, dose response, cytotoxicity control for Shn3 inhibitor project, CellTiter-Glo, cherry-picked (AID 624134); type: functional, cell-based
[18] = target: Nucleotide-binding oligomerization domain-containing protein 2 (Homo sapiens, UniProt Q9HC29); experiment: NOD2 signaling inhibitors, cell-based, luminescence, uHTS, HEK293 (AID 1566); type: functional
Nucleotide-binding oligomerization domain-containing protein 2, sequence (Q9HC29 whole entry, the tested form may be a part): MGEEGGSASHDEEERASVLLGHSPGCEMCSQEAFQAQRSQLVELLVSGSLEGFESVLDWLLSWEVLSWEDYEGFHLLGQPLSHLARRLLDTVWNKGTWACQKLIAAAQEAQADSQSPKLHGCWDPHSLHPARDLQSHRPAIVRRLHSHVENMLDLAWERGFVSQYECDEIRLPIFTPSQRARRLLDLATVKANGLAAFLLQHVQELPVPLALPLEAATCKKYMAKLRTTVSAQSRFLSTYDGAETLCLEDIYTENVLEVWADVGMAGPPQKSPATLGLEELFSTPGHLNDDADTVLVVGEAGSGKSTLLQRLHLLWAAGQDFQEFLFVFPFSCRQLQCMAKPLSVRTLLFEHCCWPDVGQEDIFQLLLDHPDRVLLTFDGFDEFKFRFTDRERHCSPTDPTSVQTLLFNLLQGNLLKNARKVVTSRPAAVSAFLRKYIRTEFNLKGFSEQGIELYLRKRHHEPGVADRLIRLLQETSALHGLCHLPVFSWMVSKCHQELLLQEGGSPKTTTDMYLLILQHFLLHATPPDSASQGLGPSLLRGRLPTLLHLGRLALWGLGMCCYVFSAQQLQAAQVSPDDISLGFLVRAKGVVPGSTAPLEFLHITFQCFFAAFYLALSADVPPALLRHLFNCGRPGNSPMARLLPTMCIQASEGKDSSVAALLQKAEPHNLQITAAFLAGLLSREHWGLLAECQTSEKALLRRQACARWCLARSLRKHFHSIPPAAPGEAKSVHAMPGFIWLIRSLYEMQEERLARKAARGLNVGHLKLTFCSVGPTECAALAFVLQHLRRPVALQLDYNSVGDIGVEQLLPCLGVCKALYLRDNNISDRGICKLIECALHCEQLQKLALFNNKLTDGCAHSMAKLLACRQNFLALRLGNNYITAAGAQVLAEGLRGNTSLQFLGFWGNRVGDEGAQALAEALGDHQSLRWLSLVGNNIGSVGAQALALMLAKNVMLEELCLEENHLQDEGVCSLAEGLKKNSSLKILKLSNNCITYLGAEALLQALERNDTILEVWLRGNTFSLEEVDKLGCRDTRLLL

[19] = tested on: HEK293; experiment: cells; type: functional, cell-based; conditions: Homo sapiens
[20] = tested on: HEK293; experiment: NOD1 signaling inhibitors, primary screen, cell-based, luminescence, uHTS (AID 1578); type: functional; conditions: Homo sapiens
[21] = tested on: HEK293; experiment: cells; type: functional, cell-based; conditions: Homo sapiens; remark: listed apart in the source
[22] = control 3'UTR Renilla luciferase suppression, dose response, counter-screen for Shn3 inhibitor project, cell-based, Clone20-Shn3RL, cherry-picked (AID 624133); type: functional
[23] = tested on: HEK293; experiment: cells; type: functional, cell-based; conditions: Homo sapiens; remark: listed apart in the source
[24] = target: Protein Wnt-3a (Mus musculus, UniProt P27467); experiment: Wnt3a-driven reporter signaling inhibition, dose response, selectivity assay for Gli-SUFU antagonist project, Wnt-LIGHT cells, luminescence (AID 651570); type: functional; conditions: read-out: IC50_Mean;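 also: Wnt-LIGHT reporter cells stimulated with conditioned medium from Wnt3a-producing cells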
Protein Wnt-3a, sequence (P27467 whole entry): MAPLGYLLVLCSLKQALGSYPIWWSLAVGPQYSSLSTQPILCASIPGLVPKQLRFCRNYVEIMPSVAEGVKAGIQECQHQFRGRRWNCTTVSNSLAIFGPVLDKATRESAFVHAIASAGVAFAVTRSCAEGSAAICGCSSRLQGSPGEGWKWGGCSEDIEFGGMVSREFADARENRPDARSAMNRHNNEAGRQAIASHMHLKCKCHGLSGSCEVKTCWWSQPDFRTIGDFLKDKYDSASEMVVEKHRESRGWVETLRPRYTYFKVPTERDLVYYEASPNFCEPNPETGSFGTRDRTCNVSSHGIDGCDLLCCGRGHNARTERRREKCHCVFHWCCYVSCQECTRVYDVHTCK

[25] = Shn3 3'UTR reporter inhibitors, dose response, cell-based, Clone20 osteoblasts, firefly luciferase, cherry-picked (AID 624132); type: functional;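 also: firefly luciferase luminescence from reporter carrying the Shn3 3'UTR in osteoblasts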
[26] = target: Long-chain-fatty-acid--AMP ligase FadD28 (Mycobacterium tuberculosis, UniProt P9WQ59); experiment: Fluorescence polarization aasay to screen for inhibitors that compete for the binding of FadD28 to a bisubstrate Measured in Biochemical System Using Plate Reader - 2147-01_Inhibitor_Dose_CherryPick_Activity.; type: functional, Mycobacterium tuberculosis H37Rv
Long-chain-fatty-acid--AMP ligase FadD28, sequence (P9WQ59 whole entry): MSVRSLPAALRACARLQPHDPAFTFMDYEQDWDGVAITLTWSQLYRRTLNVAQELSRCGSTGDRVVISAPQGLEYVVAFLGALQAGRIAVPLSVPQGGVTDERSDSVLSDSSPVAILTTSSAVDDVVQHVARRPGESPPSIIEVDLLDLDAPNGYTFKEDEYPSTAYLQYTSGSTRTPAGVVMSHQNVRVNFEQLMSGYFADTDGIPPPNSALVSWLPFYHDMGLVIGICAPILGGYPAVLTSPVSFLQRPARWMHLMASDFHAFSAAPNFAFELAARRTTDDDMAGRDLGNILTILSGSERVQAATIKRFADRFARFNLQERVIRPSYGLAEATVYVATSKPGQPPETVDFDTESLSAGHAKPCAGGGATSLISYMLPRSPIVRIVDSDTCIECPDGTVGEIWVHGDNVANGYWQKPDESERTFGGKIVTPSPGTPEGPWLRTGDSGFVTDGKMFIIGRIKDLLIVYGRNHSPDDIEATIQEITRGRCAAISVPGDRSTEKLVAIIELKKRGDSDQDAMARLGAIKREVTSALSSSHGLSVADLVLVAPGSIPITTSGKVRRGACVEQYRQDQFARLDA

[27] = cytotoxicity in HEK-293T cells, dose response, cytotoxicity control for TCR NF-kB inhibitor project, luminescence, T-cell screen hits (AID 489026); type: functional, cell-based;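 also: cells exposed to compound about 14 hours before the viability readout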
[28] = tested on: INS1; experiment: beta cell apoptosis inhibitors, cytokine rescue, dose response, luminescence, retest (AID 449756); type: functional, cell-based; conditions: Rattus norvegicus;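 also: cell death triggered by IL-1 beta plus TNF-alpha plus IFN-gamma mixture; protective hits raise ATP signal compared with cytokine alone wells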
[29] = growth suppression of beta-catenin-knockout colon cells, dose response, cell-based, HCT116, human colon tumor (AID 1045); type: functional;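 also: HCT116 colon tumor cells with beta catenin knocked out; cells exposed to compound for 60 hours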
[30] = growth suppression of PTEN-null colon cells, dose response, cell-based, HCT116 PTEN knockout (AID 1047); type: functional;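 also: HCT116 colon tumor cells with PTEN knocked out; cells exposed to compound for 60 hours before readout; potency for loss of cell viability measured by luminescence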
[31] = NIH-3T3 fibroblast cytotoxicity, dose response, cytotoxicity control, cell-based, fluorescence, Alamar Blue, secondary assay (AID 2327); type: functional;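 also: NIH-3T3 mouse fibroblasts cultured with fluconazole at 8 µg/mL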
[32] = target: Benomyl/methotrexate resistance protein (Candida albicans, UniProt P28873); experiment: CaMdr1 efflux pump inhibitor potency, dose response, singleplex, Cherry Pick1 hits (AID 588608); type: functional
Benomyl/methotrexate resistance protein, sequence (P28873 whole entry): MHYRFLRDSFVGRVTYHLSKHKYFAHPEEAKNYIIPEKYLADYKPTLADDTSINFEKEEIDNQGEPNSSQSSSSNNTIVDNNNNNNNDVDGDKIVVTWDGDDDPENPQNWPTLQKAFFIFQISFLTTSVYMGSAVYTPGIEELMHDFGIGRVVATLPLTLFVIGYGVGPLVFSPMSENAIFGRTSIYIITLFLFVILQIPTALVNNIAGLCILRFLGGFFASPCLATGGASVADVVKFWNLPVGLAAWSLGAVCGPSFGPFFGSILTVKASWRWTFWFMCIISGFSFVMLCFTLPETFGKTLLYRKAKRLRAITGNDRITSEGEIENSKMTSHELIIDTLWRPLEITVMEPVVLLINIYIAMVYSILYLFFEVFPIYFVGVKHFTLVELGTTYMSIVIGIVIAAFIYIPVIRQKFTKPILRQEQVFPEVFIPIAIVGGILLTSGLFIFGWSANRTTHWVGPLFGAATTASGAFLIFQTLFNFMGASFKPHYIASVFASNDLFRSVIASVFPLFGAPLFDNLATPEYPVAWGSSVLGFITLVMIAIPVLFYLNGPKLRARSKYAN

[33] = target: Fructose-bisphosphate aldolase (Mycobacterium tuberculosis, UniProt P9WQA3); experiment: Fluorescence-based biochemical high throughput dose response assay for inhibitors of the fructose-bisphosphate aldolase (FBA) of M. tuberculosis.; type: functional
Fructose-bisphosphate aldolase, sequence (P9WQA3 whole entry): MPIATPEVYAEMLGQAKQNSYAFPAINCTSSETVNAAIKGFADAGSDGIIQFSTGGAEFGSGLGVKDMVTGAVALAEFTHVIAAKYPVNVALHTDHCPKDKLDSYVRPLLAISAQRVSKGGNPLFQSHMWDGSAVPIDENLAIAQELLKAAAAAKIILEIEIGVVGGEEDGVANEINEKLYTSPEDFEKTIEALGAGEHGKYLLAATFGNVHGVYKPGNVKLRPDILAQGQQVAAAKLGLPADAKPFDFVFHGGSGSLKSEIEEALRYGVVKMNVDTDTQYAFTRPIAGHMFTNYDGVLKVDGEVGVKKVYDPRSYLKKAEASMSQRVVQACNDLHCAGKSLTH

[34] = target: Melanocortin receptor 4 (Homo sapiens, UniProt P32245); type: functional, cell-based;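 also: Cell-based assay with luminescence read-out, confirmatory dose-response testing for agonist activity of biased ligands at MC4R; human U2OS cells with tagged receptor and beta-arrestin; potency of agonists that increase receptor coupling to beta-arrestin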
Melanocortin receptor 4, sequence (P32245 whole entry): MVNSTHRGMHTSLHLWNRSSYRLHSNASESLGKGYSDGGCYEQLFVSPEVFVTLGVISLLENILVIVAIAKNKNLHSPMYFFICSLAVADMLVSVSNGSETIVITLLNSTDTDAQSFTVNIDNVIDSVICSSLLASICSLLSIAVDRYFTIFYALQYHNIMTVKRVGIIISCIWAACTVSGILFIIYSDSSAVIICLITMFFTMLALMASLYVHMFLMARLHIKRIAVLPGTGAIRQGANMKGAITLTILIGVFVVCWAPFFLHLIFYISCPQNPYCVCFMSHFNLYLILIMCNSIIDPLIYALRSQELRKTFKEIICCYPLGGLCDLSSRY

[35] = cells; type: functional, cell-based
[36] = cells; type: functional, cell-based; remark: listed apart in the source
[37] = target: T4, Sentrin-specific protease 8 (Homo sapiens, UniProt Q96LD8); type: functional
T4 sequence (Q96LD8 whole entry): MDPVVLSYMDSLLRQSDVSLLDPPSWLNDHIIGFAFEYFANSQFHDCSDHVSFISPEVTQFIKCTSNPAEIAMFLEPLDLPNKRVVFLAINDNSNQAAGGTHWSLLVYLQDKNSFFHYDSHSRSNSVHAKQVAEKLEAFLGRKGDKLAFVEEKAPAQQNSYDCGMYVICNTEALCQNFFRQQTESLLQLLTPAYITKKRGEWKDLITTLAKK

[38] = target: T4, Sentrin-specific protease 8; type: functional; remark: listed apart in the source
[39] = target: Beta Lactamase (Pseudomonas aeruginosa, UniProt Q932Y6); experiment: beta-lactamase reporter inhibitor potency, dose response, artefact control for TLR9-MyD88 binding inhibitor project, BLA reporter cells, FRET fluorescence (AID 588341); type: cell-based;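 also: cell based assay in CHO-K1 cells stably expressing beta-lactamase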
Beta Lactamase, sequence (Q932Y6 whole entry, the tested form may be a part): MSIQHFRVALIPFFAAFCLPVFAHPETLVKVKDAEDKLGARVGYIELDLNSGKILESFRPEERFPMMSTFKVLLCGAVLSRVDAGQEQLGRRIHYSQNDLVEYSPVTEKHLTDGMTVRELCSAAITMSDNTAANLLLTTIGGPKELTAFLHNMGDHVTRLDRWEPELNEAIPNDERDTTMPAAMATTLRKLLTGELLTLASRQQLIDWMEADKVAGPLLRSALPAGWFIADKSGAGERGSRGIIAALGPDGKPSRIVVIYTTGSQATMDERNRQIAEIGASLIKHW

[40] = tested on: CHO; experiment: cytotoxicity in TLR9-MyD88 CHO cells, dose response, cytotoxicity control for TLR9-MyD88 binding inhibitor project, cell-based, luminescence (AID 588339); type: functional, hamster; conditions: Cricetulus griseus;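 also: CHO cells stably coexpressing TLR9 and MyD88 fusions from primary screen; compound exposure lasted 48 hours before viability readout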

COc1ccc(NC(=O)c2ccc(-c3ccc(-c4noc(C)n4)cc3C)cc2)cc1N1CCN(C)CC1
AC50 [1]: 14.4 µM (active) | AC50 [2]: 22.7 µM (active) | AC50 [3]: 8.17 µM (active) | AC50 [4]: 79 µM (active) | IC50 [5]: > 20 µM (inactive) | AC50 [6]: 27.6 µM (active) | AC50 [7]: 7.71 µM (active) | AC50 [8]: 8.08 µM (active) | AC50 [9]: 14.5 µM (active)

O=C(Nc1ccc(S(=O)(=O)Nc2ccccn2)cc1)c1ccc(Cl)cc1Cl
IC50 [10]: 12.8 µM (active) | IC50 [11]: 3.81 µM (active) | IC50 [12]: 4.17 µM (active)

CCc1cc(CNC(=O)c2ccc(OC)c(OC3CCN(C(C)C)CC3)c2)on1
IC50 [10]: 0.0189 µM (active) | IC50 [11]: 0.597 µM (active) | IC50 [12]: 0.316 µM (active)

O=C(Nc1ccc(S(=O)(=O)N2CCOCC2)cc1)c1cccc([N+](=O)[O-])c1
IC50 [13]: 2.2 µM (active) | IC50 [14]: 35.9 µM (inactive) | IC50 [15]: 12 µM (inactive)

CCN(CC)C(=O)c1sc2nc(-c3ccccn3)nc(O)c2c1C
AC50 [16]: 77.1 µM (active)

CC(=O)c1cn(Cc2ccccc2F)c2ccccc12
AC50 [17]: 3.35 µM (active) | EC50 [18]: 4.05 µM (active) | IC50 [19]: > 20 µM (inactive) | EC50 [20]: 2.96 µM (active) | IC50 [21]: 5 µM (active) | AC50 [22]: 9.56 µM (active) | IC50 [23]: > 20 µM (inactive) | IC50 [24]: 0.491 µM (active) | AC50 [25]: 2.96 µM (active)

COc1cccc(NC(=O)Cn2nnc(-c3ccccc3N)n2)c1
AC50 [26]: 66.6 µM (active)

C#CC[N+](C)(C)CCCCCCCCCCCC
IC50 [27]: > 80 µM (inactive) | AC50 [28]: 4.61 µM (active) | EC50 [29]: 3.33 µM (active) | IC50 [24]: 0.279 µM (active) | EC50 [30]: 2.9 µM (active) | EC50 [31]: > 160 µM (inconclusive) | EC50 [32]: 0.312 µM (active)

COc1ccc(CCNC(=O)COC(=O)C23CC4CC(CC(Br)(C4)C2)C3)cc1
IC50 [13]: 4.45 µM (active) | IC50 [14]: 35.9 µM (inactive) | IC50 [15]: 16.6 µM (inactive)

O=C(COC(=O)c1cccs1)Nc1nnc(-c2ccccc2)o1
AC50 [16]: 102 µM (active)

Cc1nn(C)cc1-c1cc(C(=O)O)c2ccccc2n1
IC50 [33]: 1.91 µM (active)

COc1cccc(-c2cnc3c(NC(C)=O)cc(-c4ccsc4)cn23)c1
EC50 [34]: 26.2 µM (inactive)

O=C1CCC(=O)c2ccc3c4c(ccc1c24)CC3
IC50 [33]: 1.56 µM (active)

COc1ccc(/C=N/NC(=O)c2ccc(COc3ccccc3Cl)o2)c(OC)c1C
EC50 [34]: > 89.2 µM (inactive)

COC(=O)[C@]12C[C@H](CC(=O)NCCc3ccccc3OC)C(=O)N(Cc3ccc4c(c3)OCO4)C1=C[C@H](COCc1ccccc1)O[C@@H]2C
IC50 [35]: > 29.9 µM (inactive) | EC50 [36]: > 29.9 µM (inactive)

Cc1ccc(SCc2c(C(=O)N/N=C/c3ccoc3)nnn2-c2nonc2N)cc1
AC50 [26]: > 100 µM (inactive)

O=C1Cc2ccccc2C(=O)N1c1ccccc1
IC50 [37]: > 100 µM (inactive) | IC50 [38]: 12.9 µM (active) | IC50 [39]: 3.97 µM (active) | IC50 [40]: > 49.7 µM (inactive)
